Experimental data: paper PMC11363342 (ACS Central Science, 2024)
Entries after “also recorded” stand apart in the source; their conditions may differ.

Key:
[1] = tested on: SARS-CoV-2; format: cell-based
[2] = tested on: SARS-CoV; format: cell-based; details: Vero E6, MOI 1, 16 hpi, increasing concentrations
[3] = tested on: MERS-CoV; format: cell-based; details: HuH-7, MOI 1, 16 hpi, increasing concentrations
[4] = tested on: HCoV-229E; format: cell-based
[5] = tested on: SARS-CoV-2; test: Viral load reduction assay in ALI-PBEC; format: cell-based; details: ALI-PBEC
Procedure: Thus, ALI-PBEC cells were infected with SARS-CoV-2 (10^5 PFU per insert; estimated MOI ∼0.1) and treated with compounds on the apical side of the cells for 2 h. For uninfected controls, PBS was used instead of virus. The compounds were also present in the basal medium during the whole experiment until 48 hpi, when samples were harvested. […] (Figure 4D).
ALI-PBEC were pretreated with compound in the basal medium for 3 h. Cells were infected with 100 000 PFU of SARS-CoV-2/Leiden0008 per insert (estimated MOI 0.1) with compounds present in the inoculum. After 2 h at 37 °C on a rocking platform, the inoculum was removed and cells were washed three times with warm PBS. Compounds stayed present in the basal medium until 48 h postinfection. At 48 hpi the viral load was determined by plaque assay on a 200 μL apical wash (PBS incubated on the apical side of the insets for 10 min at 37 °C). For assessing cytotoxicity with the CyQuant LDH cytotoxicity assay (Thermo Fisher Scientific), 10 μL of apical wash was diluted 5 times with 40 μL of PBS. A 25 μL volume of this dilution was added to 25 μL of assay reagent and incubated for 30 min at RT in the dark. The plate was fixed and measured at a wavelength of 490 nm (Envision reader, PerkinElmer). For the activity-based probe labeling, the insets were washed one more time with PBS and processed as described previously.[52] Briefly, cells were lysed with 60 μL of potassium phosphate buffer per insert. A fluorescently labeled probe (JJB383) was diluted in MclIvaine buffer (pH 7) to a 10 μM stock and incubated for 5 min on ice. For labeling of the cell lysate, 10 μL of lysate was added to 10 μL of MclIvaine buffer and 5 μL of probe. The lysate was incubated for 30 min at 37 °C before the addition of 10 μL of Laemmli sample buffer (4×). Samples were heated at 95 °C for 5 min and separated in a 10% SDS-PAGE gel. Fluorescence was measured at a wavelength of 625 nm (Cy5) with a Uvitec Alliance Q9 imager (BioSPX). After imaging, the gels were stained with GelCode Blue stain reagent (Thermo Fisher Scientific) and visualized using a Uvitec Essential V6 system to check for equal loading.

[6] = tested on: ER α-Glu II (GANAB); test: Competitive activity-based protein profiling with ABP 29 in ALI-PBEC lysate, GANAB; format: cell-based, human
[7] = molecular target: GAA (Homo sapiens, UniProt P10253); test: Competitive activity-based protein profiling with ABP 29 in ALI-PBEC lysate, GAA; format: cell-based; details: pH 7, 48 hpi
[8] = tested on: SARS-CoV-2 S protein; format: cell-based
[9] = tested on: GBA1; details: cited from earlier work

O=S1(=O)O[C@@H]2[C@H](O)[C@@H](O)[C@H](O)[C@@H](CO)[C@@H]2O1 [Compound 11, 1,6-epi-cyclophellitol cyclosulfate]
concentration at which the inhibitory effect reached a plateau [1]: 1.6 µM
reduction of the infectious progeny virus titer [1]: 100 fold
specific infectivity (infectious particles per viral RNA copy) ([1]; H1299/ACE2, 1.5 μM compound): decrease in specific infectivity
infectious progeny of SARS-CoV (in words) [2]: significant reduction of infectious progeny
infectious progeny of MERS-CoV (in words) [3]: significant reduction of infectious progeny
virus infectivity of HCoV-229E (in words) [4]: did not show any reduction in virus infectivity
concentration at which the maximum antiviral effect was reached [5]: 0.5 µM
reduction of viral load vs untreated control ([5]; 0.5 μM, 48 hpi): up to 100 fold
reduction of infectious virus titers ([5]; 0.5–1.6 μM): up to 2 logs
ER α-Glu II inhibition in ALI-PBEC (in words) ([6]; 0.5 μM): almost full inhibition
in cellulo ER α-Glu II inhibition by ABP 29 labeling (in words) ([6]; pH 7): most efficient in inhibiting ER α-Glu II and GAA at low concentrations
in cellulo GAA inhibition by ABP 29 labeling (in words) [7]: most efficient in inhibiting ER α-Glu II and GAA at low concentrations
(processed) S2 in the medium [8]: strongly reduced
full-length S protein in the cell lysate [8]: minor reduction
∼90 kDa S2 fragment in the cell lysate [8]: almost complete disappearance
inhibition of GBA1 [9]: completely inactive; also recorded: does not inhibit
